Structures can show the parent of a compound that is named as a salt.

Consider 16 compounds from US6376500B2, “Substituted 2-(4-piperidyl)-4(3H)-quinazolinones and 2-(4-piperidyl)-4(3H)-azaquinazolinones” (Syntex (U.S.A.) LLC, priority 1999, dated 2002).

One series relates to anesthetized dog. Description: Dog in vivo blood and intraurethral pressure assay. Particulars: i.v., anesthetized mongrel dogs. How it is done:
The following describes an in vivo assay for measuring the relative effect of test compounds on hypogastric nerve stimulation-induced increases in intraurethral pressure and phenylephrine-induced increases in diastolic blood pressure in anesthetized dog.
Mongrel dogs (10 to 20 kg) were fasted for 12 to 18 hours and anesthetized with […] (35 mg/kg, i.v.). An endotracheal tube was inserted and thereafter the lungs were mechanically ventilated with room air. The right femoral vein was isolated and cannulated with two polyethylene cannulae, one for the administration of a continuous infusion of phenobarbital sodium (5 to 10 mg/kg/hr) and the other for bolus administration of test substances. The right femoral artery was isolated and cannulated to the abdominal aorta with a fluid filled polyethylene cannula connected to an external pressure transducer for monitoring diastolic aortic pressure (DAP). The bladder was exposed via a ventral midline abdominal incision and emptied of urine through a 22 gauge needle. The bladder was cannulated through a stab incision with a water filled balloon catheter connected to an external pressure transducer for monitoring prostatic intraurethral pressure (IUP). The right hypogastric nerve (HGN) was carefully isolated and attached to a Dastre's electrode for nerve stimulation. […]

For orientation: melting point means the temperature, or range, at which the solid turns liquid. `Cl.Cl.O=c1[nH]c(C2CCN(CCc3c[nH]c4ccccc34)CC2)nc2cc(Cl)ccc12` returned a melting point of 190 to 195 °C. Still for that read-out and setting: the figure for `Cl.O=c1[nH]c(C2CCN(CCc3c[nH]c4ccccc34)CC2)nc2cc(F)ccc12` is 220 to 225 °C; for `Cl.O=c1[nH]c(C2CCN(CCc3c[nH]c4ccc(F)cc34)CC2)nc2ccccc12` it is 298 to 301 °C. The same measure, in the same setting: under `Cl.O=c1[nH]c(C2CCN(CCc3c[nH]c4ccc(F)cc34)CC2)nc2ccc(Cl)cc12` stands 290 °C (dec.).

Regarding `Cl.O=c1[nH]c(C2CCN(CCc3c[nH]c4ccc(F)cc34)CC2)nc2cc(Cl)ccc12`, the melting point is 300 °C (dec.). `Cl.O=c1[nH]c(C2CCN(CCc3c[nH]c4ccc(F)cc34)CC2)nc2cc(F)ccc12`: the melting point was 283 °C (dec.). The compound `Cl.O=c1[nH]c(C2CCN(CCc3c[nH]c4cc(F)ccc34)CC2)nc2ccccc12` returned a melting point of 263 to 264 °C. Still for that read-out and setting: the figure for `Cl.O=c1[nH]c(C2CCN(CCc3c[nH]c4cc(F)ccc34)CC2)nc2ccc(Cl)cc12` is 292 to 294 °C; for `Cl.O=c1[nH]c(C2CCN(CCc3c[nH]c4cc(F)ccc34)CC2)nc2cc(Cl)ccc12` it is 256 to 266 °C. Regarding `Cl.Cl.O=c1[nH]c(C2CCN(CCc3c[nH]c4cc(F)ccc34)CC2)nc2ccc(F)cc12`, the melting point was 195 to 197 °C.

For `Cl.O=c1[nH]c(C2CCN(CCc3c[nH]c4cc(F)ccc34)CC2)nc2cc(F)ccc12`, the melting point is 205 to 209 °C. The same measure, in the same setting: the figure for `Cl.Cl.O=c1[nH]c(C2CCN(CCc3c[nH]c4cc(F)ccc34)CC2)nc2cc(F)c(F)cc12` is 215 to 217 °C; for `COc1ccc2nc(C3CCN(CCc4c[nH]c5cc(F)ccc45)CC3)[nH]c(=O)c2c1.Cl` it is 230 to 232 °C.

`COc1cc2nc(C3CCN(CCc4c[nH]c5cc(F)ccc45)CC3)[nH]c(=O)c2cc1OC.Cl` registered a melting point of 229 to 231 °C.

As for `O=c1[nH]c(C2CCN(CCc3c[nH]c4ccccc34)CC2)nc2ccccc12` (as salt: hydrochloride), the melting point was in the range of 268 to 270 °C. For `COc1cc2nc(N3CCN(C(=O)c4ccco4)CC3)nc(N)c2cc1OC` [prazosin], in the series on anesthetized dog, the “inhibition of HGN stimulation-induced increases in IUP and phenylephrine-induced increases in DAP” value is “inhibited increases in IUP and DAP in similar fashion”.
